Data published in PMC6193555 (Nutrition and cancer, 2017).

Assays:
c-Met = c-Met (Homo sapiens, UniProt P08581); assay: Z'-LYTE cell-free kinase assay, positive control; assay type: biochemical
c-Met (M1250T) = c-Met (M1250T) (Homo sapiens, UniProt P08581, M1250T); assay: Z'-LYTE cell-free kinase assay; assay type: biochemical
Chain of c-Met (M1250T) (P08581 956-1390 M1250T limits assumed): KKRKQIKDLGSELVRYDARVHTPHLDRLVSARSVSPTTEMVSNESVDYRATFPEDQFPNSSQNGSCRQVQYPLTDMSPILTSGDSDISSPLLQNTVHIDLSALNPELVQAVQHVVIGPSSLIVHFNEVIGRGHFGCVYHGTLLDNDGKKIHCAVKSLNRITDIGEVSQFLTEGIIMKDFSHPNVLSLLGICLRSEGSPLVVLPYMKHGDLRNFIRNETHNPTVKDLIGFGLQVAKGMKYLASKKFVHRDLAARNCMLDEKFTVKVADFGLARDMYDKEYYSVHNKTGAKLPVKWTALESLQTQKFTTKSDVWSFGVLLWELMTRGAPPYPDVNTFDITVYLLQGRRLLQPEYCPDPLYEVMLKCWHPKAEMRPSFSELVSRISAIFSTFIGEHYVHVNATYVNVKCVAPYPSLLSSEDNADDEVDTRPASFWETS

Chain of c-Met (P08581 25-307): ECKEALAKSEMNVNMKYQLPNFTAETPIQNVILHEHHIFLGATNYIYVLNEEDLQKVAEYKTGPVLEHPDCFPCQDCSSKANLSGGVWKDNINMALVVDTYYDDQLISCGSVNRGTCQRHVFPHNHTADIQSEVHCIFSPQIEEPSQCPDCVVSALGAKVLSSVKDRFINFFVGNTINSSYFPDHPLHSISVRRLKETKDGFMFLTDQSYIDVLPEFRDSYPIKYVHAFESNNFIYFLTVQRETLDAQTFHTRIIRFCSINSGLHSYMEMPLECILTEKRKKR
Chain of c-Met (P08581 308-1390): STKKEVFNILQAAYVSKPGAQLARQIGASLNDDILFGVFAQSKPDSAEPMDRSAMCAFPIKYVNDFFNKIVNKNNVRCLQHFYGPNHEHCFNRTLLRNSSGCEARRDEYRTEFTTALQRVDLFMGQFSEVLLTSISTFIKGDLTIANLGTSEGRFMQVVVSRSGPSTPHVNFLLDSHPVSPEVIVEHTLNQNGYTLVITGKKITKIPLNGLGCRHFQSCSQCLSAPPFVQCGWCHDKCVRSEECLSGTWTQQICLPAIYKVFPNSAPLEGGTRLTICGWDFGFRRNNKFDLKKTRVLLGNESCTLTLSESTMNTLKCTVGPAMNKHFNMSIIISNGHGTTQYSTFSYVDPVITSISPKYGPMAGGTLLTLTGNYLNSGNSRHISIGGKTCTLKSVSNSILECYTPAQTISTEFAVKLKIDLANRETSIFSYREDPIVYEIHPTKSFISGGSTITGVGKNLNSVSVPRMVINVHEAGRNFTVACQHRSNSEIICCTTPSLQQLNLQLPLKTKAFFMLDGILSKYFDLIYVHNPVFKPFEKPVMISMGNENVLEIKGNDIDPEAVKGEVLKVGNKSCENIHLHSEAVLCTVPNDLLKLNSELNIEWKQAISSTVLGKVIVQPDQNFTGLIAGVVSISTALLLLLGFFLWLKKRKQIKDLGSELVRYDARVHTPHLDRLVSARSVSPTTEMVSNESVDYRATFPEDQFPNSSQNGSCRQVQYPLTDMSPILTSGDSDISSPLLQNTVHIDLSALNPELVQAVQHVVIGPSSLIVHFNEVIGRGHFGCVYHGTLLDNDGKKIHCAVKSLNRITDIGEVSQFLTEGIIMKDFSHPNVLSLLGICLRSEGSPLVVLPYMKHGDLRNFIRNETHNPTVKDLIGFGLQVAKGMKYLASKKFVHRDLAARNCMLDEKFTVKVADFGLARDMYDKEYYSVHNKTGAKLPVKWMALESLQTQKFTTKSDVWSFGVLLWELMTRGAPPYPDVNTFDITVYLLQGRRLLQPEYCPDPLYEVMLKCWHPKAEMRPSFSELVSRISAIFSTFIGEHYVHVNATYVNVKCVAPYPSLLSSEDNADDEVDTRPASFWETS

In the case of `C/C=C(/C=O)[C@@H](CC=O)CC(=O)OCCc1ccc(O)cc1` [(–)-oleocanthal], the “Z'-LYTE cell-free kinase assay, positive control” value (c-Met) is reported as “(–)-oleocanthal was utilized as a positive control in Z'-LYTE cell free assay as a documented c-Met inhibitory phenolic”.

`C[C@@H]1O[C@@H](OC[C@H]2O[C@@H](Oc3c(-c4ccc(O)c(O)c4)oc4cc(O)cc(O)c4c3=O)[C@H](O)[C@@H](O)[C@@H]2O)[C@H](O)[C@H](O)[C@H]1O` [compound 6, quercetin 3-O-[α-L-^1C4-rhamnopyranosyl 1'”→6” β-D-^4C1-glucopyranoside]] was tested, and the IC50 (c-Met (M1250T)) was 8.5 µM.
